The text below walks through data of patent US7078554B2, “Detection of glucose in solutions also containing an alpha-hydroxy acid or a beta-diketone” (Sensors for Medicine and Science, Inc., priority 2001, dated 2006).

Series [1] is described as follows: Effect of lactate in solution on the dose response effect of glucose on fluorescence. The conditions noted are these: 75 μM in PBS, 0–10 mM glucose with 0, 2 or 5 mM lactate, excitation 365 nm (FIG. 3). On the procedure: Spectra were recorded using a Shimadzu RF-5301 spectrafluorometer with excitation @365 nm; excitation slits at 1.5 nm; emission slits at 1.5 nm; ambient temperature. All points measured in triplicate, with ±1 SD error bars included.
The hydrogel film (100 μm thickness, 8 mm diameter disk) was mounted in a PMMA cuvette at a 45° angle. All measurements were made at 37° C. in a Shimadzu RF-5301 spectrofluorometer with excitation at 370 nm (slit=3 nm) and emission at 430 nm (slit=3 nm) at low PMT sensitivity. Glucose and L-sodium lactate concentrations were checked using the YSI Model 2300 STAT plus glucose analyzer. Error bars are standard deviation with triplicate values for each data point.
The hydrogel film (100 μm thickness, 8 mm diameter disk) was mounted in a PMMA cuvette at a 45° angle. All measurements were made at 37° C. in a Shimadzu RF-5301 spectrofluorometer with excitation at 370 nm (slit=3 nm) and emission at 430 nm (slit=3 nm) at low PMT sensitivity. Glucose and L-sodium lactate concentrations were checked using the YSI Model 2300 STAT plus glucose analyzer. The data is plotted as the average of triplicate values for each data point.

Series [2] can be described thus: Modulation of fluorescence with glucose.
Series [3] can be described thus: Modulation of fluorescence with lactate.
A short description of series [4]: Solubility. Format: physicochemical. The conditions noted are these: solvents in which soluble.
For series [5] the following is noted: aqueous association with glucose; cited from earlier work.

Take `O=C(O)CCN(Cc1ccccc1B(O)O)Cc1c2ccccc2c(CN(CCC(=O)O)Cc2ccccc2B(O)O)c2ccccc12` [9,10-bis[N-(2-boronobenzyl)-N-[2-(carboxyethyl)amino]-methyl]anthracene]: in series [1], the “effect of lactate on the fluorescence modulation (at 428 nm) by glucose” value is listed as “did not substantially affect”.

Consider `CN(CCNc1ccc2c3c(cccc13)C(=O)N(CCNC(=O)c1cc(B(O)O)cc([N+](=O)[O-])c1)C2=O)Cc1ccccc1B(O)O` [Example 10, N-(3-Borono-5-nitrobenzamido)ethyl-4-(N′-aminoethylene-N″-[2-(borono)benzyl]methylamino)naphthalene-1,8-dicarboximide], for which the “normalized fluorescence emission (I/I0 at 525 nm), effect of glucose” value in series [2] (in MeOH/PBS (50/50 vol. %), pH 7.4, 0–50 mM glucose, excitation 430 nm (FIG. 12)) is reported as “affected by the presence of glucose”. Also, the “normalized fluorescence emission (I/I0 at 530 nm), effect of lactate” value in series [3] (in MeOH/PBS (50/50 vol. %), pH 7.4, 0–7 mM L-sodium lactate, excitation 430 nm (FIG. 13)) is “not by the presence of lactate”.

For the compound `C=C(C)C(=O)NCCCN(Cc1ccccc1B(O)O)Cc1c2ccccc2c(CN(CCC(=O)O)Cc2ccccc2B(O)O)c2ccccc12` [Example 12, 9-[N-(2-boronobenzyl)-N-[3-(methacrylamido)propylamino]methyl]-10-[N-(2-boronobenzyl)-N-[2-(carboxyethyl)amino]methyl]anthracene], the Solubility result in series [4] is listed as “PBS/methanol, methanol, ethanol, chloroform, dichloromethane”. With `C=C(C)C(=O)NCCCN(Cc1ccccc1B1OC(C)(C)C(C)(C)O1)Cc1c2ccccc2c(CN(CCC(=O)NCCCCCCNC(=O)c2c3ccccc3cc3ccccc23)Cc2ccccc2B2OC(C)(C)C(C)(C)O2)c2ccccc12` [Example 13], the Solubility result in series [4] is recorded as “PBS/methanol, methanol, ethanol, chloroform, dichloromethane”. Consider `OB(O)c1ccccc1` [phenylboronic acid], for which the Kd in series [5] was 9.1 mM. As to “N-2-[6-N-(N-4-dimethylaminobenzyl)-6-N-[2-(borono)benzyl]aminohexyl]-[2-(borono)benzyl]amino-ethyl-4-butylamino-1,8-naphthalimide [Example 5]”, the “normalized fluorescence emission (I/Io @ 535 nm), effect of glucose” value in series [2] (0.015 mM in 70/30 MeOH/PBS, 0–20 mM glucose, excitation 450 nm (FIG. 5)) was “affected by the presence of glucose”. In addition, the “normalized fluorescence emission (I/Io @ 535 nm), effect of lactate” value in series [3] (0.015 mM in 70/30 MeOH/PBS, 0–20 mM lactate, excitation 450 nm (FIG. 5)) is “not substantially affected by the presence of lactate”.
